Tests used:
HEK293T cells [1] = test: Off-target editing at HEK3 and HEK4 on- and off-target sites with DNAPK and PolQ inhibitors, Example 12; assay type: cell-based; conditions: DNAPK inhibitor 1 μM, PolQ inhibitor 0 μM
Description: (§1) HEK293T cells were seeded into 96-well plates and allowed to attach for 20 hours.

HEK293T cells [2] = test: PolQ inhibitor ART558 titration on precise gene editing outcomes, Example 10; assay type: cell-based; conditions: DNAPK inhibitor 1 μM, PolQ inhibitor 0 μM
Description: as §1

[3] = tested on: induced Pluripotent Stem Cells (iPSC); test: Double-strand break repair pathways in Cas9-inducible iPSCs, Example 5; assay type: cell-based; conditions: single inhibitor: AZD7648 1 μM or PolQ inhibitor 3 μM, vs DMSO, FIG. 12
Description: (§2) The effect of NHEJ and/or MMEJ pathway inhibition on CRISPR-Cas-induced DNA double stranded break repair pathways in iPSCs was examined. Briefly, iPSCs comprising an inducible Cas9 gene were seeded into a 96-well plate 20 hours before transfection with a plasmid encoding a guide RNA (sgRNA) targeting one of three separate target sites together with a single-stranded oligonucleotide donor (ssDNA), followed by induction of Cas9 expression. […] Sixty hours post-transfection, the percentage of double-stranded break repair by the HDR, NHEJ, and MMEJ pathways was determined as discussed in Example 1.

HEK293T cells [4] = test: Cell confluency and transfection efficiency in CRISPR/Cas-transfected cells, Example 4; assay type: cell-based; conditions: AZD7648 at a final concentration of 1 mM, FIG. 10
Description: (§3) The effect of inhibitors of the MMEJ and NHEJ pathways on CRISPR-Cas-induced DNA double stranded break repair pathways was examined using the process shown schematically in FIG. 2A. Briefly, HEK293T cells were seeded into a 96-well plate 20 hours before transfection with plasmids encoding SpCas9 and a guide RNA (sgRNA) targeting CD34 together with a single-stranded oligonucleotide donor (ssDNA). […] The Pol Q inhibitors used are PolQ_2, PolQ_3, PolQ_4, PolQ_5, PolQ_6 or PolQ_7. Sixty hours post-transfection, genomic DNA was harvested and sequenced using deep-targeted amplicon sequencing. Genetic variants of the sequencing data were determined using a bioinformatic workflow, and the percentages of DNA double-stranded break repair by the MMEJ, NHEJ, and HDR pathways were determined using Rational InDel Meta-Analysis (RIMA). See, e.g., Taheri-Ghafarokhi et al, Nuc. Acids Res., 2018, 46 (16): 8417-8434. The RIMA results are plotted as shown in FIG. 2B, where deletions associated with microhomologies are visualized according to the bars shown in the figure.
HEK293T cells were cultured, transfected, and treated with NHEJ and MMEJ inhibitors as described in Example 1. Cell confluency and transfection efficiency was assessed in transfected cells treated with NHEJ and MMEJ inhibitors.

Cas9-inducible iPSCs = test: SSTR-mediated gene knock-in in Cas9-inducible iPSCs, Example 6; assay type: cell-based; conditions: single inhibitor, mapped reads, FIG. 13
Description: as §2
The effect of NHEJ and MMEJ pathway inhibition on gene knock-in efficiency mediated by the SSTR pathway in iPSCs was investigated. Briefly, Cas9-inducible iPSCs were cultured and transfected with sgRNA and ssDNA polynucleotides as described in Example 5.

HEK293T cells [5] = test: PolQ2 and PolQ6 on precise gene editing outcome at various target-sites, Example 9; assay type: cell-based; conditions: DNAPK inhibitor 1 μM, PolQ inhibitor 0 μM; for MMEJ indels Mean / NHEJ indels Mean / Total editing Mean: HEK293T, ssDNA donor; for Precise KI fold increase: vs DMSO
Description: as §1

HEK293T cells [6] = test: Different DNAPK inhibitors on precise gene editing outcomes, Example 8; conditions: for HDR to indel ratio / Precise KI fold increase: gINS + ssDNA; for Precise KI fold increase: vs DMSO; for MMEJ indels Mean / NHEJ indels Mean / Total editing Mean: sgRNA CD34 (gINS) + ssDNA, 70 hours post-transfection;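 on all read-outs here: cells transfected with plasmids for SpCas9-EGFP, editing outcomes quantified from genomic DNA by deep targeted amplicon sequencing with bioinformatic analysis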
Description: Cells allowed to attach for 12 hours before transfection. Cells were transfected with DNA plasmids encoding for SpCas9-EGFP and a sgRNAs targeting CD34 (gINS) in the presence of single-stranded oligonucleotide donor (ssDNA). 70 hours post-transfection cell confluence and EGFP-based transfection efficiencies were determined with the Incucyte S3. Genomic DNA was extracted and editing outcome was analysed through deep-targeted amplicon sequencing using bioinformatic analysis.

HEK293T cells [7] = test: CRISPR/Cas9 double-strand break repair pathway and knock-in analysis (RIMA, amplicon sequencing), Examples 1-3; assay type: cell-based
Description: as §3
The effect of NHEJ and MMEJ inhibitors on the CRISPR/Cas-mediated knock-in efficiency was determined in both mutated and mapped reads.
The effect of MMEJ pathway inhibition on mutated and mapped reads was assessed.

[8] = HEK293T, sgRNA CD34 (gMEJ) + ssDNA
[9] = SpCas9 + sgRNA CD34 + ssDNA, AZD7648 1 μM alone or in combination with Pol Q inhibitors, vs DMSO controls, FIG. 4

Cc1cc2ncnn2cc1Nc1ncc2c(n1)n(C1CCOCC1)c(=O)n2C [AZD7648]
OT1 off-target editing Mean (HEK293T cells [1]; HEK3 nodonor): 41.9 | OT2 off-target editing Mean (HEK293T cells [1]; HEK3 nodonor): 32.5 | OT3 off-target editing Mean (HEK293T cells [1]; HEK3 nodonor): 16.3 | OT4 off-target editing Mean (HEK293T cells [1]; HEK3 nodonor): 0.3 | on-target editing Mean (HEK293T cells [1]; HEK3 nodonor): 73.8 | OT1 off-target editing Mean (HEK293T cells [1]; HEK3 ssDNA): 17.7 | OT2 off-target editing Mean (HEK293T cells [1]; HEK3 ssDNA): 12.7 | OT3 off-target editing Mean (HEK293T cells [1]; HEK3 ssDNA): 7.6 | OT4 off-target editing Mean (HEK293T cells [1]; HEK3 ssDNA): 0.1 | on-target editing Mean (HEK293T cells [1]; HEK3 ssDNA): 61.5 | OT1 off-target editing Mean (HEK293T cells [1]; HEK4 nodonor): 12.7 | OT2 off-target editing Mean (HEK293T cells [1]; HEK4 nodonor): 7.3 | OT3 off-target editing Mean (HEK293T cells [1]; HEK4 nodonor): 36.3 | on-target editing Mean (HEK293T cells [1]; HEK4 nodonor): 9.8 | OT1 off-target editing Mean (HEK293T cells [1]; HEK4 ssDNA): 5.4 | OT2 off-target editing Mean (HEK293T cells [1]; HEK4 ssDNA): 3.3 | OT3 off-target editing Mean (HEK293T cells [1]; HEK4 ssDNA): 18.2 | on-target editing Mean (HEK293T cells [1]; HEK4 ssDNA): 15.6 | MMEJ indels Mean (HEK293T cells [2]; [8]): 32.6 | NHEJ indels Mean (HEK293T cells [2]; [8]): 1.3 | Total editing Mean (HEK293T cells [2]; [8]): 74.4 | KI to indel ratio (HEK293T cells [2]; gMEJ + ssDNA): 0.7 | double-strand break repair by the HDR pathway [3]: marked in increase | repair by the MMEJ and NHEJ pathways [3]: decreased | cell confluency (HEK293T cells [4]): no significant effect | SSTR-mediated gene knock-in at all three target sites (Cas9-inducible iPSCs): increased | MMEJ indels Mean (HEK293T cells [5]; target-site gDel): 8.9 | NHEJ indels Mean (HEK293T cells [5]; target-site gDel): 1.3 | Total editing Mean (HEK293T cells [5]; target-site gDel): 77.3 | MMEJ indels Mean (HEK293T cells [5]; target-site gMej): 27.9 | NHEJ indels Mean (HEK293T cells [5]; target-site gMej): 2.9 | Total editing Mean (HEK293T cells [5]; target-site gMej): 83.1 | MMEJ indels Mean (HEK293T cells [5]; target-site glns): 13.3 | NHEJ indels Mean (HEK293T cells [5]; target-site glns): 1.3 | Total editing Mean (HEK293T cells [5]; target-site glns): 83.0 | KI to indel ratio (HEK293T cells [5]; target-site gDel): 4.0 | Precise KI fold increase (HEK293T cells [5]; target-site gDel): 2.5 fold | KI to indel ratio (HEK293T cells [5]; target-site gMej): 1.0 | Precise KI fold increase (HEK293T cells [5]; target-site gMej): 2.2 fold | KI to indel ratio (HEK293T cells [5]; target-site glns): 3.3 | Precise KI fold increase (HEK293T cells [5]; target-site glns): 3.3 fold | HDR to indel ratio (HEK293T cells [6]; DNAPK inhibitor 0.3125 μM): 0.3 | Precise KI fold increase (HEK293T cells [6]; DNAPK inhibitor 0.3125 μM): 1.4 fold | HDR to indel ratio (HEK293T cells [6]; DNAPK inhibitor 0.625 μM): 0.5 | Precise KI fold increase (HEK293T cells [6]; DNAPK inhibitor 0.625 μM): 2.0 fold | HDR to indel ratio (HEK293T cells [6]; DNAPK inhibitor 1.25 μM): 0.6 | Precise KI fold increase (HEK293T cells [6]; DNAPK inhibitor 1.25 μM): 2.0 fold | HDR to indel ratio (HEK293T cells [6]; DNAPK inhibitor 5 μM): 1.1 | Precise KI fold increase (HEK293T cells [6]; DNAPK inhibitor 5 μM): 2.9 fold | HDR to indel ratio (HEK293T cells [6]; DNAPK inhibitor 10 μM): 1.1 | Precise KI fold increase (HEK293T cells [6]; DNAPK inhibitor 10 μM): 2.8 fold | MMEJ indels Mean (HEK293T cells [6]; DNAPK inhibitor 0.3125 μM): 15.2 | NHEJ indels Mean (HEK293T cells [6]; DNAPK inhibitor 0.3125 μM): 28.6 | Total editing Mean (HEK293T cells [6]; DNAPK inhibitor 0.3125 μM): 69.5 | MMEJ indels Mean (HEK293T cells [6]; DNAPK inhibitor 0.625 μM): 17.4 | NHEJ indels Mean (HEK293T cells [6]; DNAPK inhibitor 0.625 μM): 18.3 | Total editing Mean (HEK293T cells [6]; DNAPK inhibitor 0.625 μM): 66.0 | MMEJ indels Mean (HEK293T cells [6]; DNAPK inhibitor 1.25 μM): 16.5 | NHEJ indels Mean (HEK293T cells [6]; DNAPK inhibitor 1.25 μM): 8.7 | Total editing Mean (HEK293T cells [6]; DNAPK inhibitor 1.25 μM): 53.3 | MMEJ indels Mean (HEK293T cells [6]; DNAPK inhibitor 5 μM): 18.5 | NHEJ indels Mean (HEK293T cells [6]; DNAPK inhibitor 5 μM): 2.5 | Total editing Mean (HEK293T cells [6]; DNAPK inhibitor 5 μM): 57.5 | MMEJ indels Mean (HEK293T cells [6]; DNAPK inhibitor 10 μM): 16.9 | NHEJ indels Mean (HEK293T cells [6]; DNAPK inhibitor 10 μM): 2.2 | Total editing Mean (HEK293T cells [6]; DNAPK inhibitor 10 μM): 53.7 | CRISPR/Cas-mediated editing efficiency (HEK293T cells [7]; AZD7648 1 μM alone and in combination with Pol Q inhibitors, FIG. 5): did not affect | double-strand break repair by the HDR pathway (HEK293T cells [7]; [9]): marked in increase | repair by the MMEJ and NHEJ pathways (HEK293T cells [7]; [9]): decreased
